Measured values: US20240306670A1, “BERBERINE ALKALOIDS IN THE PREVENTION AND/OR TREATMENT OF INTESTINAL DISEASE” (priority 2017, published 2024)
Read-outs that look alike come from different tables or passages of the source.

Legend:
[1] = Feed palatability, feed and water consumption and bird productivity study (Example 2); assay type: in vivo, broiler chickens
Text: A follow-up study to determine the feed palatability, feed and water consumption and bird productivity following incorporation of a single formulation of IRP001 hemisulfate salt (unmasked) when offered to broiler chickens in-feed or in-water. The study explores the optimal treatment regime in terms of treatment start date.
Phase 1: On receipt, two hundred and seventy (270) day-old commercial broiler chickens were allocated sequentially as they are received into sixteen (16) individual floor pens, each of 16 or 17 birds, on Day 0.
Phase 2: On receipt, the ninety (90) day-old commercial broiler chickens were allocated sequentially as they are received into four (4) individual floor pens, each of 22 or 23 birds, on Day 22.
Feed intake, water intake, weight gain and mortality were used as outcome parameters.
Individual daily feed intake and individual daily water intake data by pen and then by treatment group were calculated for Phases 1 and 2 (and for the entire trial for the birds in Group/Pen 2, 15 and 16 that continue through both Phases) using figures for total feed and water provided each day to each pen divided by the number of birds in each pen. Where errors in weighing, feeding/watering or recording (or other unexplained losses of feed and water) had occurred means were adjusted by using the mean value for the same pen on the 1-2 days either side of the apparent error. Similarly, group mean bodyweights were calculated for Phase 1 using total weight/total no. birds for Day 0 and individual weights from Days 7, 14, 21, 28, 35 and 42. Total (individual) feed consumed was calculated per treatment and feed conversion ratios per treatment calculated using the expression: total (individual) feed/total (individual) weight gain.
Individual daily feed intake and individual daily water intake were statistically compared by treatment within each phase and between Pens 2 and 15/16 over both phases using a linear model:—
and Tibco SPOTFIRE S+ 8.2 (2010). ‘Day’ was included in the model to allow for changes over time, ‘Pen’ as each treatment consisted of 2 pens while an interaction term ‘Treatment:Day’ was included to allow for treatment×time effects. Model suitability was confirmed by inspection of residual plots; in all instances the statistical model was appropriate.

[2] = tested on: Clostridium Perfringens (type A strain EHE-NE36) after Eimeria oocyst challenge; conditions: for Median Duodenal Lesion Score (0 absent to 4 severe) / Median Ilial Lesion Score (0 absent to 4 severe) / Median Jejunal Lesion Score (0 absent to 4 severe): 16 days
[3] = in vivo
[4] = General safety in broilers reared to market weight by histology (Example 8); conditions: histology D42
[5] = Phase 1, IVP 1 g/L in-water Day 0-21, pens 3, 4
[6] = Phase 1, IVP 1 g/L in-water Day 1-21, pens 5, 6
[7] = Phase 1, IVP 1 g/L in-water Day 2-21, pens 7, 8
[8] = Phase 1, IVP 1 g/L in-water Day 3-21, pens 9, 10
[9] = Phase 1, IVP 1 g/L in-water Day 4-21, pens 11, 12
[10] = Phase 1, IVP 1 g/L in-water Day 5-21, pens 13, 14
[11] = Phase 1, IVP 1 g/L in-water Day 6-21 (42), pens 15, 16
[12] = Phase 2 (day-old chicks received Day 22), pens 19, 20, Day 25-42FEED (IVP in-feed)
[13] = Phase 2 summary, pens 15, 16, D6-21(42), IVP 1 g/L in-water, birds kept to day 42
[14] = NE challenge, IVP 0.1 g/L in-water, groups 7, 8
[15] = NE challenge, IVP 0.20 g/kg in-feed, group 11
[16] = NE challenge, IVP 1.0 g/L in-water, groups 9, 10
[17] = NE challenge, IVP 2.0 g/kg in-feed, group 12
[18] = Necrotic Enteritis, IVP feed 0.2 g/kg, group 11, isolator 9, 11 birds
[19] = Necrotic Enteritis, IVP feed 2 g/kg, group 12, isolator 3, 15 birds
[20] = Necrotic Enteritis, IVP water 0.1 g/L, 'Mean' line of groups 7 and 8, 28 birds
[21] = Necrotic Enteritis, IVP water 0.1 g/L, group 7, isolator 6, 13 birds
[22] = Necrotic Enteritis, IVP water 0.1 g/L, group 8, isolator 11, 15 birds
[23] = Necrotic Enteritis, IVP water 1.0 g/L, 'Mean' line of groups 9 and 10, 25 birds
[24] = Necrotic Enteritis, IVP water 1.0 g/L, group 9, isolator 2, 9 birds
[25] = Necrotic Enteritis, IVP water 1.0 g/L, group 10, isolator 8, 16 birds
[26] = Nil Challenge, IVP water 1.0 g/L, 'Mean' line of groups 3 and 4, 25 birds
[27] = Nil Challenge, IVP water 1.0 g/L, group 3, isolator 10, 10 birds
[28] = Nil Challenge, IVP water 1.0 g/L, group 4, isolator 4, 15 birds
[29] = Nil challenge, IVP 1.0 g/L in-water, groups 3, 4

## COc1ccc2cc3[n+](cc2c1OC)CCc1cc2c(cc1-3)OCO2 [IRP001 chloride, berberine chloride]
[1]; [5]
  FCR: 1.49
  Gain: 0.610 kg
  Group mean bodyweight Day 0: 43.2
  Group mean bodyweight Day 7: 118.1
  Group mean bodyweight Day 14: 291.9
  Group mean bodyweight Day 22: 653.6
  Total Feed: 0.908 kg
[1]; [6]
  FCR: 1.50
  Gain: 0.678 kg
  Group mean bodyweight Day 0: 42.4
  Group mean bodyweight Day 7: 125.8
  Group mean bodyweight Day 14: 309.0
  Group mean bodyweight Day 22: 720.7
  Total Feed: 1.019 kg
[1]; [7]
  FCR: 1.45
  Gain: 0.675 kg
  Group mean bodyweight Day 0: 44.6
  Group mean bodyweight Day 7: 132.0
  Group mean bodyweight Day 14: 315.4
  Group mean bodyweight Day 22: 719.4
  Total Feed: 0.977 kg
[1]; [8]
  FCR: 1.44
  Gain: 0.653 kg
  Group mean bodyweight Day 0: 42.4
  Group mean bodyweight Day 7: 118.6
  Group mean bodyweight Day 14: 295.1
  Group mean bodyweight Day 22: 695.7
  Total Feed: 0.939 kg
[1]; [9]
  FCR: 1.46
  Gain: 0.716 kg
  Group mean bodyweight Day 0: 41.8
  Group mean bodyweight Day 7: 138.8
  Group mean bodyweight Day 14: 320.3
  Group mean bodyweight Day 22: 758.2
  Total Feed: 1.046 kg
[1]; [10]
  FCR: 1.48
  Gain: 0.680 kg
  Group mean bodyweight Day 0: 44.3
  Group mean bodyweight Day 7: 135.3
  Group mean bodyweight Day 14: 316.8
  Group mean bodyweight Day 22: 724.7
  Total Feed: 1.010 kg
[1]; [11]
  FCR: 1.40
  Gain: 0.723 kg
  Group mean bodyweight Day 0: 43.8
  Group mean bodyweight Day 7: 139.1
  Group mean bodyweight Day 14: 325.2
  Group mean bodyweight Day 22: 767.2
  Total Feed: 1.016 kg
[1]; [12]
  Bodyweight Day 28: 112.4 g
  Bodyweight Day 35: 273.6 g
  Bodyweight Day 42: 614.9 g
  FCR: 1.56
  Feed: 0.783 kg
  Gain: 0.502 kg
[1]; [13]
  Bodyweight Day 28: 1.16 kg
  Bodyweight Day 35: 1.66 kg
  Bodyweight Day 42: 2.39 kg
  FCR: 1.64
  Feed: 3.841 kg
  Gain: 2.346 kg
[2]; [14]
  Median Duodenal Lesion Score (0 absent to 4 severe): 4
  Median Ilial Lesion Score (0 absent to 4 severe): 4
  Median Jejunal Lesion Score (0 absent to 4 severe): 4
[2]; [15]
  Median Duodenal Lesion Score (0 absent to 4 severe): 4
  Median Ilial Lesion Score (0 absent to 4 severe): 4
  Median Jejunal Lesion Score (0 absent to 4 severe): 4
[2]; [16]
  Median Duodenal Lesion Score (0 absent to 4 severe): 1
  Median Ilial Lesion Score (0 absent to 4 severe): 1
  Median Jejunal Lesion Score (0 absent to 4 severe): 1
[2]; [17]
  Median Duodenal Lesion Score (0 absent to 4 severe): 1
  Median Ilial Lesion Score (0 absent to 4 severe): 1
  Median Jejunal Lesion Score (0 absent to 4 severe): 1
[2]; [18]
  Mortalities prior to autopsy: 9
  Mortality %: 82%
[2]; [19]
  Mortalities prior to autopsy: 2
  Mortality %: 13%
[2]; [20]
  Mortalities prior to autopsy: 22
  Mortality %: 79%
[2]; [21]
  Mortalities prior to autopsy: 12
  Mortality %: 92%
[2]; [22]
  Mortalities prior to autopsy: 10
  Mortality %: 67%
[2]; [23]
  Mortalities prior to autopsy: 0
  Mortality %: 0%
[2]; [24]
  Mortalities prior to autopsy: 0
  Mortality %: 0%
[2]; [25]
  Mortalities prior to autopsy: 0
  Mortality %: 0%
[2]; [26]
  Mortalities prior to autopsy: 0
  Mortality %: 0%
[2]; [27]
  Mortalities prior to autopsy: 0
  Mortality %: 0%
[2]; [28]
  Mortalities prior to autopsy: 0
  Mortality %: 0%
[2]; [29]
  Median Duodenal Lesion Score (0 absent to 4 severe): 0
  Median Ilial Lesion Score (0 absent to 4 severe): 0
  Median Jejunal Lesion Score (0 absent to 4 severe): 0
[3]
  Cumulative Pathology and Enteritis scores: equal or lower than the control
[4]
  gastrointestinal tract (GIT) histologic lesions: within normal limits
  liver histologic lesions: within normal limits
